# US9156831B2, “Chemical compounds” (ASTRAZENECA AB, priority 2013, dated 2015)
# Tests used:
# Assay in all cases: Cell proliferation assay (MTS)
# Assay type in all cases: cell-based, human
# 5637 = system: 5637
# Method: (§1) The sensitivity of a panel of human cancer cell lines to the effects of compounds was determined in a standard proliferation assay.
# (§2) Cells were plated in 96 well plates at densities of 1000-6000 cells per well in RPMI media containing 10% FBS. After incubation at 37° C. for 16 hours, various concentrations of compound were added to the assay plates. After incubation for an additional 72 h, the viable cells were determined by the addition of MTS reagent (Promega #3582) to each well for 2 h. MTS is a tetrazolium salt that is bioreduced by metabolically active cells in the presence of an electron coupling reagent to formazan. The formazan product was then quantitated by absorbance at 490 nm, as an indicator of the relative number of live cells. In order to determine the GI50 (concentration at which growth of cells was inhibited by 50%) the relative number of cells present at the time of drug addition was determined by comparison with the MTS readout before the drug was added, and this value was subtracted from the 72 hr value of untreated cells as a measure of cell growth during the assay.
# SNU620 = system: SNU620
# Method: (§3) The sensitivity of a panel of human cancer cell lines to the effects of compounds was determined in a standard proliferation assay. Cell lines were sourced through the AstraZeneca Cell Bank.
# as §2
# NUGC3 = system: NUGC3
# Method: as §3, §2
# SW1710 = system: SW1710
# Method: as §1
# (§4) Cells were plated in 96 well plates at densities of 1000-6000 cells per well in RPMI media containing 10% FBS. After incubation at 37° C. for 16 hours, various concentrations of compound were added to the assay plates. After incubation for an additional 72 h, the viable cells were determined by the addition of MTS reagent (Promega #3582) to each well for 2 h. […] The formazan product was then quantitated by absorbance at 490 nm, as an indicator of the relative number of live cells. In order to determine the GI50 (concentration at which growth of cells was inhibited by 50%) the relative number of cells present at the time of drug addition was determined by comparison with the MTS readout before the drug was added, and this value was subtracted from the 72 hr value of untreated cells as a measure of cell growth during the assay.
# SNU216 = system: SNU216
# Method: as §1, §4
# QGP1 = system: QGP1
# Method: as §1, §4
# H2085 = system: H2085
# Method: as §1, §2
# MKN74 = system: MKN74
# Method: as §1, §2
# MIAPACA2 = system: MIAPACA2
# Method: as §3, §2
# MOLP8 = system: MOLP8
# Method: as §3, §2
# COLO205 = system: COLO205
# Method: as §1, §4
# [1] = Homo sapiens, Bladder, PIK3CA WT
smiles,measurement,setting,value
"CCn1nc(C2CCN(C(=O)CCO)CC2)nc1-c1cnc(N)c(-c2nnc(C(C)(C)C)o2)n1 [Example 3, 1-(4-(5-(5-amino-6-(5-tert-butyl-1,3,4-oxadiazol-2-yl)pyrazin-2-yl)-1-ethyl-1H-1,2,4-triazol-3-yl)piperidin-1-yl)-3-hydroxypropan-1-one]",Category,5637,Resistant (resistant (GI50>1.0 μM))
same,GI50,5637; [1],9.63 µM
same,Category,SNU620,Resistant (resistant (GI50>1.0 μM))
same,GI50,"SNU620; Homo sapiens, Stomach, PIK3CA WT",3.14 µM
same,Category,NUGC3,Resistant (resistant (GI50>1.0 μM))
same,GI50,"NUGC3; Homo sapiens, NUGC-3, Stomach, PIK3CA WT",24.2 µM
same,Category,SW1710,Resistant (resistant (GI50>1.0 μM))
same,GI50,SW1710; [1],5.34 µM
same,Category,SNU216,Resistant (resistant (GI50>1.0 μM))
same,GI50,"SNU216; Homo sapiens, SNU-216, Stomach, PIK3CA WT",1.07 µM
same,Category,QGP1,Resistant (resistant (GI50>1.0 μM))
same,GI50,"QGP1; Homo sapiens, QGP-1, Pancreas, PIK3CA WT",4.87 µM
same,Category,H2085,Resistant (resistant (GI50>1.0 μM))
same,GI50,"H2085; Homo sapiens, Lung, PIK3CA WT",1.83 µM
same,Category,MKN74,Resistant (resistant (GI50>1.0 μM))
same,GI50,"MKN74; Homo sapiens, MKN-74, Stomach, PIK3CA WT",30 µM
same,Category,MIAPACA2,Resistant (resistant (GI50>1.0 μM))
same,GI50,"MIAPACA2; Homo sapiens, MIA PaCa-2, Pancreas, PIK3CA WT",24.2 µM
same,Category,MOLP8,Resistant (resistant (GI50>1.0 μM))
same,GI50,"MOLP8; Homo sapiens, MOLP-8, Blood/lymph, PIK3CA WT",3.29 µM
same,Category,COLO205,Resistant (resistant (GI50>1.0 μM))
same,GI50,"COLO205; Homo sapiens, COLO 205, Colon, PIK3CA WT",8.93 µM
